Experimental data: patent US20230355513A1, “PARTICLES INCLUDING CHITOSAN-BILIRUBIN CONJUGATE, AND ORAL PHARMACEUTICAL COMPOSITION INCLUDING SAME” (KOREA ADVANCED INSTITUTE OF SCIENCE AND TECHNOLOGY, priority 2021, published 2023)

System: mouse inflammatory bowel disease model (DSS)
Experiment: Efficacy in mouse inflammatory bowel disease model with 5-ASA control (Example 7)
Format: in vivo
Details: 50 mg/kg, compared with the other groups
Description: As the symptoms of inflammatory bowel disease were aggravated, systemic inflammations may be caused through the release of inflammatory cytokines in the blood, and therefore, an effective anti-inflammatory medicine was thought to inhibit the release of inflammatory substances in the spleen, liver, kidney, or the like to prevent the inflammations, and thus this was investigated.

## Nc1ccc(O)c(C(=O)O)c1 [5-ASA, 5-aminosalicylic acid]
  spleen weight: spleen weight was high
